Molecular target: human P2X3 receptor (Homo sapiens (Human), UniProt P56373)
Test: P2X3 receptor inhibition, ATP-evoked Fluo-3 fluorescence (FDSS 3000)
Format: cell-based
Settings: C6BU-1 cell transfected with human P2X3 receptor gene

Sequence of human P2X3 receptor (P56373 whole entry): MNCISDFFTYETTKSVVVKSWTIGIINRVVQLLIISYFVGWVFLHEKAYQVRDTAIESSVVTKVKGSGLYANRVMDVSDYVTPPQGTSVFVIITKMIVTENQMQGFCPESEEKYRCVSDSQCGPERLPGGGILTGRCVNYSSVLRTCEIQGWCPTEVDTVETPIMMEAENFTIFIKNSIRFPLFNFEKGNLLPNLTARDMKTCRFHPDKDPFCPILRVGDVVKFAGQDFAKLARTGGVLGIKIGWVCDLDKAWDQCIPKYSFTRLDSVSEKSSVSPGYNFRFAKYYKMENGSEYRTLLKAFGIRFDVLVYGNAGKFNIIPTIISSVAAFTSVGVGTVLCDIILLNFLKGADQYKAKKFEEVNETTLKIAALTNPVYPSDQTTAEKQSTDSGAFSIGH

Row | SMILES | IC50 [nM]
1 | CC(C)Oc1ccc(Nc2nc(=O)n(CCOC3CCCCO3)c(=O)n2Cc2ccc(Cl)cc2)cc1Cl (stereo not drawn) [I-350] | 10
2 | CC(C)Oc1ccc(Nc2nc(=O)n(CCO)c(=O)n2Cc2ccc(Cl)cc2)cc1Cl [I-351] | 15
3 | CC(C)Oc1ccc(Nc2nc(=O)n(CCC(=O)NCCO)c(=O)n2Cc2ccc(Cl)cc2)cc1F [I-352] | 36
4 | CC(C)Oc1ccc(Nc2nc(=O)n(CC(=O)NCCO)c(=O)n2Cc2ccc(Cl)cc2)cc1F [I-353] | 18
5 | CCOC(=O)CCn1c(=O)nc(Nc2ccc(OC(C)C)c(Cl)c2)n(Cc2ccc(Cl)cc2)c1=O [I-354] | 8
6 | CCOC(=O)CCn1c(=O)nc(Nc2ccc(OC(C)C)c(F)c2)n(Cc2ccc(Cl)cc2)c1=O [I-356] | 12
7 | O=c1nc(Nc2cccc(C(F)(F)F)c2)n(Cc2ccc(Cl)cc2)c(=O)n1CCCO [I-357] | 47
8 | CC(C)Oc1ccc(Nc2nc(=O)n(CCCO)c(=O)n2Cc2ccc(Cl)cc2)cc1 [I-359] | 40
9 | O=c1nc(Nc2ccc(OC(F)F)cc2)n(Cc2ccc(Cl)cc2)c(=O)n1CCCO [I-360] | 148
10 | CCOc1ccc(Nc2nc(=O)n(CCCO)c(=O)n2Cc2ccc(Cl)cc2)cc1 [I-361] | 76
11 | CC(C)Oc1ccc(Nc2nc(=O)n(CCCO)c(=O)n2Cc2ccc(Cl)cc2)cc1Cl [I-362] | 7
12 | CC(C)Cc1ccc(Nc2nc(=O)n(CC(CO)CO)c(=O)n2Cc2ccc(Cl)cc2)cc1 [I-366] | 46
13 | O=c1nc(Nc2cccc(C(F)(F)F)c2)n(Cc2ccc(Cl)cc2)c(=O)n1CC(CO)CO [I-367] | 40
14 | CC(C)Oc1ccc(Nc2nc(=O)n(CC(CO)CO)c(=O)n2Cc2ccc(Cl)cc2)cc1 [I-368] | 41
15 | O=c1nc(Nc2ccc(OC(F)F)cc2)n(Cc2ccc(Cl)cc2)c(=O)n1CC(CO)CO [I-370] | 154
16 | CCOc1ccc(Nc2nc(=O)n(CC(CO)CO)c(=O)n2Cc2ccc(Cl)cc2)cc1 [I-371] | 63
17 | CC(C)n1c(=O)nc(Nc2ccc(C#N)cc2)n(Cc2ccc(Cl)cc2)c1=O [I-372] | 964

Row | SMILES | IC50 [nM]
18 | O=c1nc(Nc2ccc(Cl)c(Cl)c2)n(Cc2ccc(Cl)cc2)c(=O)n1CCO [I-373] | 185
19 | O=c1nc(Nc2ccc(OC3CCCC3)c(Cl)c2)n(Cc2ccc(Cl)cc2)c(=O)n1CCO [I-374] | 80
20 | CC(C)c1cccc(Nc2nc(=O)n(CCO)c(=O)n2Cc2ccc(Cl)cc2)c1 [I-378] | 347
21 | CCCSc1ccc(Nc2nc(=O)n(CCO)c(=O)n2Cc2ccc(Cl)cc2)cc1 [I-379] | 330
22 | CCOC(=O)CCn1c(=O)nc(Nc2ccc(OC(C)C)c(Cl)c2)n(CC2CCCCC2)c1=O [I-380] | 34
23 | CC(C)Oc1ccc(Nc2nc(=O)n(CCC(=O)O)c(=O)n2CC2CCCCC2)cc1Cl [I-382] | 96
24 | O=c1nc(Nc2ccc(OC(F)(F)F)cc2)n(Cc2ccc(Cl)cc2)c(=O)n1CCO [I-383] | 532
25 | CCC[S+]([O-])c1ccc(Nc2nc(=O)n(CCO)c(=O)n2Cc2ccc(Cl)cc2)cc1 (stereo not drawn) [I-385] | 908
26 | CC(C)Oc1ccc(Nc2nc(=O)n(CCNC(N)=O)c(=O)n2Cc2ccc(Cl)cc2)cc1F [I-386] | 41
27 | CNC(=O)NCCn1c(=O)nc(Nc2ccc(OC(C)C)c(F)c2)n(Cc2ccc(Cl)cc2)c1=O [I-387] | 37
28 | CC(C)Oc1ccc(Nc2nc(=O)n(CCNC(=O)N(C)C)c(=O)n2Cc2ccc(Cl)cc2)cc1F [I-388] | 36
29 | CCNC(=O)NCCn1c(=O)nc(Nc2ccc(OC(C)C)c(F)c2)n(Cc2ccc(Cl)cc2)c1=O [I-389] | 64
30 | CC(C)Oc1ccc(Nc2nc(=O)n(CCNC(=O)NCCO)c(=O)n2Cc2ccc(Cl)cc2)cc1F [I-390] | 67
31 | CC(C)Oc1ccc(Nc2nc(=O)n(CCN3C(=O)CNC3=O)c(=O)n2Cc2ccc(Cl)cc2)cc1F [I-391] | 133
32 | CC(C)Oc1ccc(Nc2nc(=O)n(CCNC(=O)NCC(=O)O)c(=O)n2Cc2ccc(Cl)cc2)cc1F [I-392] | 38
33 | CC(C)Oc1ccc(Nc2nc(=O)n(C(C)C)c(=O)n2Cc2ccc(Cl)cc2)cn1 [I-394] | 435
